“Also recorded” adds a separate entry of the source.
Tests used:
[1] = tested on: A2058 and A375 melanoma cell lines; set-up: method as in PMID 31294975; conditions: 10 µM; cited from earlier work
[2] = tested on: cytochrome c in A375 cells; assay: Cytochrome c subcellular localisation (immunofluorescence and Western blotting of fractions); assay type: cell-based, human; conditions: 10 µM, 24 h
Procedure: (§1) To obtain the total protein extract, cells were seeded into 6-well-plates (3 × 10^5 cells/plate) for 24 h at 37 °C and then treated with 4a or 0.5% (v/v) DMSO. After treatment, cells were harvested, washed with PBS, and then lysed in ice-cold modified radio immunoprecipitation assay (RIPA) buffer (50 mM Tris•HCl, pH 7.4, 150 mM NaCl, 1% Nonidet P-40, 0.25% sodium deoxycholate, 1 mM Na3VO4 and 1 mM NaF), supplemented with protease inhibitors and incubated for 30 min on ice. The supernatant, obtained after centrifugation at 13200 g for 30 min at 4 °C, constituted the total protein extract. Protein concentration was determined by the Bradford method, using bovine serum albumin (BSA) as standard. To obtain the cytosolic and mitochondrial fractions, cells were plated at a density of 2 × 10^6 cells/plate for 24 h at 37 °C. After the treatment with 4a or 0.5% (v/v) DMSO, cells were harvested, washed in PBS, and then resuspended in buffer A (5 mM Hepes, pH 7.4, 250 mM mannitol, 0.5 mM EGTA, 0.1% BSA), supplemented with protease inhibitors, and homogenised. The homogenate was centrifuged at 600 g for 5 min at 4 °C and the supernatant was then centrifuged at 10300 g for 10 min at 4 °C. The resulting supernatant represented the cytosolic fraction, whereas the pellet, constituting the mitochondrial fraction was resuspended in RIPA buffer. Protein concentration was determined as previously indicated. Equal amounts of total, cytosolic or mitocondrial protein extracts were used for Western blotting analysis. Briefly, protein samples were dissolved in SDS-reducing loading buffer, run on sodium dodecylsulfate polyacrylamide gel electrophoresis (SDS/PAGE), and then transferred to Immobilon P membrane (Millipore, Saint Louis, MO, USA). The filter was incubated with the specific primary antibody at 4 °C overnight and then with the secondary antibody at room temperature for 1 h. Membranes were then analysed by an enhanced chemiluminescence reaction using WesternBright ECL (Advansta, San Jose, CA, USA) according to manufacturer’s instructions; signals were visualised by autoradiography. The analysis of pAkt protein levels was performed as previously described. Briefly, filters were first incubated with the anti-pAkt primary antibody and then with the secondary antibody and membranes were analysed by an enhanced chemiluminescence reaction as previously indicated. The same filters were then stripped, using AbCam (Cambridge, UK) stripping solution, pH 2 (200 mM glycine, 3.5 mM SDS, 1% Tween-20) at 45 °C for 30 min, washed 3 times with PBS-Tween 0.1%, incubated with anti-Akt primary antibody and then with the relative secondary antibody. Signals were detected as previously specified.
(§2) Immunofluorescence experiments were carried out essentially as previously described. […]

[3] = tested on: cytochrome c in A2058 cells; assay: as above; assay type: cell-based, human; conditions: 10 µM, 24 h
Procedure: as §1, §2

A375 cells [4] = assay: Western blotting of total cell extracts (CDC25A, -B, -C, p53, pAkt); assay type: cell-based, human; conditions: 10 µM
Procedure: as §1

A2058 cells [5] = assay: as above; assay type: cell-based, human; conditions: 10 µM
Procedure: as §1

A375 cells [6] = assay: Apoptosis by cytofluorimetry after PI incorporation (subdiploid DNA content); assay type: cell-based, human; conditions: 5 or 10 µM, 24-72 h
Procedure: (§3) The human melanoma cell lines A375 and A2058, deriving from a primary tumour or lymph nodal metastasis, respectively, were kindly provided from CEINGE (Naples, Italy). Cells were grown in DMEM supplemented with 10% FBS, 2 mM L-glutamine, 100 IU/mL penicillin G and 100 µg/mL streptomycin in humidified incubator at 37 °C under 5% CO2 atmosphere. The cell line BJ-5ta, a human skin fibroblast immortalised with the human telomerase reverse transcriptase[30] was cultured in a 4:1 mixture of DMEM and Medium 199 supplemented with 4 mM L-glutamine, 4.5 g/L glucose, 1.5 g/L sodium bicarbonate, 10% FBS, 100 IU/mL penicillin G, […] streptomycin in humidified incubator at 37 °C under 5% CO2 atmosphere. All cells were split and seeded every 3 days and used during their exponential phase of growth. Cell treatments were usually carried out after 24 h from plating.
(§4) Cytofluorimetric analysis was used to determine the number of apoptotic nuclei essentially as previously described. Briefly, cells were seeded into six-well plates at 3 × 10^5 cells/well and after 24 h were treated with 4a or 0.5% (v/v) DMSO and incubated for different times. Then, cells were harvested with trypsin, and centrifuged, and the pellets were resuspended in 200 µL of a hypotonic lysis solution containing 50 µg/mL PI. After incubation at 4 °C for 30 min, cells were analysed with a FACScan flow cytometer (Becton Dickinson, Franklin Lakes, NJ, USA) to evaluate the presence of nuclei with DNA content lower than diploid.

A2058 cells [7] = assay: as above; assay type: cell-based, human; conditions: 5 or 10 µM, 24-72 h
Procedure: as §3, §4

BJ-5ta cells = assay: as above; assay type: cell-based, human; conditions: 10 µM, 24-, 48- or 72-h, nontumorigenic fibroblasts
Procedure: as §3, §4

SMILES: CCOC(=O)c1cccc(Nc2cc(OC)cc3ccccc23)c1 [4a]
- cell cycle of melanoma cells [1]: arrest of cells in G2/M phase; also recorded: arrest in the G2/M phase; also recorded: arrested the cell cycle of melanoma cells in G2/M phase
- cell growth of melanoma cells [1]: reduced the cell growth rate; also recorded: significantly reduced; also recorded: significant antiproliferative action
- pCDK1 protein levels [1]: increase
- cytochrome c localisation, Western blotting of cytosolic and mitochondrial extracts [2]: significant cytosolic translocation
- cytochrome c localisation, immunofluorescence [2]: induces a cytosolic translocation of cytochrome c
- cytochrome c localisation, Western blotting of cytosolic and mitochondrial extracts [3]: significant cytosolic translocation
- cytochrome c localisation, immunofluorescence [3]: induces a cytosolic translocation of cytochrome c
- p53 protein levels (A375 cells [4]; 16- and 24-h): clear and significant increase
- pAkt protein levels (A375 cells [4]; 30-min): significant and early decrease
- CDC25A, -B and -C protein levels (A375 cells [4]; essentially after 24- and 48-h): reduction of protein levels of all three forms
- p53 protein levels (A2058 cells [5]; 16- and 24-h): clear and significant increase
- pAkt protein levels (A2058 cells [5]; 30-min): significant and early decrease
- CDC25A, -B and -C protein levels (A2058 cells [5]; essentially after 24- and 48-h): reduction of protein levels of all three forms
- apoptosis (cells with a hypodiploid DNA content) (A375 cells [6]): dose- and time-dependent increase
- apoptosis (cells with a hypodiploid DNA content) (A2058 cells [7]): dose- and time-dependent increase
- apoptosis (cells with a subdiploid DNA content) (BJ-5ta cells): does not exert any apoptotic effect

Reference: PMC7580834, “Inhibition mechanism of naphthylphenylamine derivatives acting on the CDC25B dual phosphatase and analysis of the molecular processes involved in the high cytotoxicity exerted by one selected derivative in melanoma cells” (Journal of Enzyme Inhibition and Medicinal Chemistry, 2020)
